Laboratory results published in US20080207614A1, “QUINAZOLINE DERIVATIVES FOR THE TREATMENT AND PREVENTION OF DIABETES AND OBESITY” (SK CHEMICALS CO., LTD., priority 2004, published 2008).

Experiments:
C2C12 muscle cells = assay: Analysis of glucose absorption (2-deoxyglucose) in differentiated C2C12 muscle cells; type: cell-based; conditions: test materials 10 μM, times relative to control group
Procedure, shortened: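 Uptake of 0.2 μCi 2-deoxyglucose over 20 min, counted radiometrically in lysed cells. Before tracer, compounds (10 μM) were applied for 30 min to C2C12 cells differentiated 6 days in 1% serum and equilibrated 3 h in 5 mM glucose KRB.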

AMPK = assay: Measurement of AMPK activity by Western blot in C2C12 cells; type: cell-based; set-up: key to AMPK activity (degree of phosphorylation of serine-79 and threonine-172): fold increase in threonine-172 phosphorylation; AMPK activity (degree of phosphorylation of serine-79): unit not given here; conditions: 10 μM for 50 minutes; for AMPK activity (degree of phosphorylation of serine-79 and threonine-172): no superscript: Western blot of serine-79 and threonine-172 phosphorylation; for AMPK activity (class: degree of phosphorylation of threonine-172): strong/mild/weak
Experimental: C2C12 cells were cultured and differentiated in the same manner as in Experimental Example 1. Treatment with the test materials was also performed in the same manner as in Experimental Example 1 (10 μM for 50 minutes). The culture medium was removed and the cells were washed for 2 times with PBS and protein extracts were obtained using a lysis buffer (50 mM tris-HCl, pH 7.4, 1% NP-40, 0.25% sodium deoxycholate, 150 mM NaCl, 1 mM EDTA, 1 mM PMSF, 1 mM sodium o-vanadate, 1 mM NaF, 1 μg/mL apronitin, 1 μg/mL leu-peptin, 1 μg/mL pepstatin). The AMPK activity was determined from Western blot analysis of the degree of phosphorylation of serine-79 […] acetyl CoA carboxylase and the degree of phosphorylation of threonine-172. The amount of ERK (extracellular signal regulated protein kinase) was confirmed by Western blot in order to quantify the proteins.
The result of Western blot analysis is given in Table 3 below, wherein “strong” means that the degree of phosphorylation of threonine-172 increased by 3 times or more, “mild” means that the degree of phosphorylation of threonine-172 increased by 1 to 3 times and “weak” means that the degree of phosphorylation of threonine-172 increased by less than 1 time.

| Structure (SMILES) | Glucose absorption (C2C12 muscle cells) | AMPK activity (degree of phosphorylation of serine-79 and threonine-172) (AMPK) | AMPK activity (class: degree of phosphorylation of threonine-172) (AMPK) | AMPK activity (degree of phosphorylation of serine-79) (AMPK; footnote a: Western blot of serine-79 phosphorylation) |
| --- | --- | --- | --- | --- |
| COc1ccc(OC)c(CNc2nc(N3CCN(C)CC3)nc3ccccc23)c1 [Compound 298, (2,5-Dimethoxybenzyl)-[2-(4-methylpiperazino-1-yl)-quinazolino-4-yl]-amine] | 0.6 | 0.7 |  |  |
| COc1cc(CNc2nc(-c3ccccc3)nc3ccccc23)ccc1O [Compound 113, 2-Methoxy-4-[(2-phenylquinazolino-4-ylamino)-methyl]-phenol] | 2.1 | 2.1 | strong (“strong” means that the degree of phosphorylation of threonine-172 increased by 3 times or more) |  |
| COc1cccc(CNc2nc(C(C)C)nc3ccccc23)c1OC [Compound 322, (2,3-Dimethoxybenzyl)-(2-isopropylquinazolino-4-yl)-amine] | 1.4 | 1.9 |  |  |
| COc1cc(OC)c(CNc2nc(C(C)c3ccccc3)nc3ccccc23)c(OC)c1 (stereo not drawn) [Compound 381, [2-(1-Phenylethyl)-quinazolino-4-yl]-(2,4,6-trimethoxybenzyl)-amine] | 1.2 | 4.0 |  |  |
| COc1ccccc1CNc1nc(N2CCCC2)nc2ccccc12 [Compound 275, (2-Methoxybenzyl)-(2-pyrrolidino-1-ylquinazolino-4-yl)-amine] | 0.8 | 2.1 |  |  |
| CCSc1nc(NCc2cccc(F)c2)c2ccccc2n1 [Compound 9, (2-Ethylsulfanylquinazolino-4-yl)-(3-fluorobenzyl)-amine] | 2.0 |  |  | 5.5^a |
| COc1cccc(CNc2nc(Cc3ccccc3)nc3ccccc23)c1OC [Compound 329, (2-Benzylquinazolino-4-yl)-(2,3-dimethoxybenzyl)-amine] | 1.8 | 4.2 |  |  |
| COc1cc(CNc2ncnc3ccccc23)cc(OC)c1OC [Compound 411, Quinazolino-4-yl-(3,4,5-trimethoxybenzyl)-amine] | 1.2 | 1.8 |  |  |
| Clc1cccc(CNc2nc(-c3ccccc3)nc3ccccc23)c1Cl [Compound 115, (2,3-Dichlorobenzyl)-(2-phenylquinazolino-4-yl)-amine] | 2.3 | 2.3 | strong (“strong” means that the degree of phosphorylation of threonine-172 increased by 3 times or more) |  |
| CCSc1nc(NCc2ccc(OC)cc2)c2ccccc2n1 [Compound 25, (2-Ethylsulfanylquinazolino-4-yl)-(4-methoxybenzyl)-amine] | 2.6 |  | strong (“strong” means that the degree of phosphorylation of threonine-172 increased by 3 times or more) |  |
| CC(C)(C)c1nc(NCc2ccccc2)c2ccccc2n1 [Compound 187, Benzyl-(2-tert-butylquinazolino-4-yl)-amine] | 2.4 | 0.7 | mild (“mild” means that the degree of phosphorylation of threonine-172 increased by 1 to 3 times) |  |
| CC(C)CCNc1nc(-c2ccccc2)nc2ccccc12 [Compound 130, (3-Methylbutyl)-(2-phenylquinazolino-4-yl)-amine] | 2.2 | 1.8 | strong (“strong” means that the degree of phosphorylation of threonine-172 increased by 3 times or more) |  |
| COc1ccc(CNc2nc(N3CCCCC3)nc3ccccc23)cc1OC [Compound 300, (3,4-Dimethoxybenzyl)-(2-piperidino-1-ylquinazolino-4-yl)-amine] | 0.9 | 1.0 |  |  |
